Experimental data published in US11524943B1 (Vivace Therapeutics, Inc., priority 2017, dated 2022).

System: HEK293T cells stably transfected with 8×TBD luciferase reporter and pRLTK
Test: YAP Reporter Assay (8×TBD firefly luciferase reporter)
Type: cell-based
Details: Homo sapiens, HEK-293T; HEK293T 8×TBD reporter cells, 24-hr incubation, top concentration 3 μM, 1:3 dilution, 10 points
Experimental: HEK293T cells stably transfected with 8×TBD luciferase reporter and pRLTK in 384-well plates were treated with the test compounds, starting from 3 μM (final concentration in assay plate), 1:3 dilution, and 10 points in quadruplicates. Post 24-hr incubation with compounds at 37° C. and 5% CO2, cells were lysed and 8×TBD-driven firefly luciferase and control TK-driven renilla luciferase activities were measured using Promega Dual-Luciferase Reporter Assay System.
Reagents: The reagents used for this study are: DMEM: Invitrogen #11960077, Dual-Glo Luciferase Assay System: Promega-E2980, Puromycin Dihydrochloride: Invitrogen-A1113803, 384-well plate: PerkinElmer-6007480, L-GLUTAMINE: Invitrogen-25030164, Hygromycin B: Invitrogen-10687010, and Penicillin-Streptomycin: Merk-TMS-AB2-C
Media: The media used for this assay were: Culture Medium: DMEM+1 ug/mL puromycin+200 ug/mL hygromycin (with 10% FBS+1 mM L-glutamine); and Assay Medium: DMEM (with 10% FBS+1 mM L-glutamine+1×P/S).
Cell Plating: The appropriate media was warmed at 37° C. by water bath: Culture Medium, Assay Medium, 1*D-PBS, 0.05% trypsin-EDTA. The cells were trypsinized after removing all media, then washed with 1* sterile D-PBS and then with 2 ml 0.05% trypsin-EDTA. The cells were then incubated at RT for one minute. Then 10 ml/75 cm2 flask Assay Medium was added to each flask. Using a 10 ml pipette, the cells were then gently resuspended in the media, until the clumps completely disappeared. The cells were then transferred into 50 ml centrifuge tubes and were centrifuged at 800 rpm for 5 mins. The medium was removed and the cells were resuspended with Assay Medium. An aliquot of cells was used to count the cell density (cells/ml). The cell suspension was then diluted with Assay Medium to a concentration of 6×10^4 cells/ml. 50 ul cells suspension was then plated to 384-well plate (PerkinElmer-6007480), 3×10^3 cells/well and the cells were incubated in an incubator at 37° C., 5% CO2.
Compound Treatment: In the afternoon (incubation of the plate with 3-4 hrs), the test compounds were added by Echo, starting from 3 uM (final concentration in the assay plate), 1:3 dilution, 10 points, quadruplicates. The plate was placed at 37° C., 5% CO2 incubator for 24 hrs.
Detection: The Dual-Glo Luciferase Reagent was prepared by transferring the contents of one bottle of Dual-Glo Luciferase Buffer to one bottle of Dual-Glo Luciferase Substrate to create the Dual-Glo Luciferase Reagent. Mixing was performed by inversion until the substrate was thoroughly dissolved. After mixing, the reagent was aliquoted into 15 ml tubes. In the afternoon (24 hrs post compound treatment), the DMEM+ medium in the 384 well plates were aspirated by Microplate Washer.
Measuring firefly luciferase activity: 20 ul Dual-Glo Luciferase Reagent was added to the 384-well plates. The plates were protected from light to prevent interference with the assay. The plates were shaken for 1 min followed centrifuging plates at 1000 rpm for 30 seconds. After waiting at least 10 minutes, the firefly luminescence was measured by Envision.
Measuring renilla luciferase activity: 20 ul Stop-Glo Reagent was added to the 384-well plates. The plates were shaken for 1 min and then centrifuged at 1000 rpm for 30 seconds. After waiting at least 10 minutes, the renilla luminescence was measured by Envision.
Compound IC50 and maximum inhibition on the firefly luciferase and renilla luciferase activities were reported separately.

Row | SMILES | IC50 [nM]
1 | COC(=O)c1ccc(Nc2ccc(C(F)(F)F)cc2)c(-c2nnn(C)n2)c1 [Compound 1, methyl 3-(2-methyl-2H-tetrazol-5-yl)-4-((4-(trifluoromethyl)phenyl)amino)benzoate] | ≤ 100
2 | CC(C)NC(=O)c1ccc(Nc2ccc(C(F)(F)F)cc2)c(-c2ccnc(N)c2)c1 [Compound 29, 3-(2-aminopyridin-4-yl)-N-isopropyl-4-((4-(trifluoromethyl)phenyl)amino) benzamide] | 100 to 1000
3 | O=C(O)c1ccc(Nc2ccc(C(F)(F)F)cc2)c(-c2nnc(C3CC3)o2)c1 [Compound 54, 3-(5-cyclopropyl-1,3,4-oxadiazol-2-yl)-4-((4-(trifluoromethyl)phenyl)amino) benzoic acid] | ≤ 100
4 | Cn1nnc(-c2cc(C(N)=O)ccc2Nc2ccc(C(F)(F)F)cc2)n1 [Compound 7, 3-(2-methyl-2H-tetrazol-5-yl)-4-((4-(trifluoromethyl)phenyl)amino) benzamide] | ≤ 100
5 | COCCC(=O)NCCOCCOCCNC(=O)c1ccc(Nc2ccc(C(F)(F)F)cc2)c(-c2nnn(C)n2)c1 [Compound 65, 3-(2-methyl-2H-tetrazol-5-yl)-N-(5-oxo-2,9,12-trioxa-6-azatetradecan-14-yl)-4-((4-(trifluoromethyl)phenyl)amino) benzamide] | 100 to 1000
6 | COC(=O)c1ccc(Nc2ccc(C(F)(F)F)cc2)c(-c2nnc(C3CC3)o2)c1 [Compound 53, methyl 3-(5-cyclopropyl-1,3,4-oxadiazol-2-yl)-4-((4-(trifluoromethyl)phenyl)amino)benzoate] | ≤ 100
7 | O=C(O)c1ccc(Nc2ccc(C(F)(F)F)cc2)c(-c2ncco2)c1 [Compound 61, 3-(oxazol-2-yl)-4-((4-(trifluoromethyl)phenyl)amino) benzoic acid] | ≤ 100
8 | COc1ccnc(-c2cc(C(=O)O)ccc2Nc2ccc(C(F)(F)F)cc2)c1 [Compound 50] | ≤ 100
9 | Cn1nnc(-c2cc(C(N)=O)ccc2Nc2cccc(C(F)(F)F)c2)n1 [Compound 6, 3-(2-methyl-2H-tetrazol-5-yl)-4-((3-(trifluoromethyl)phenyl)amino) benzamide] | ≤ 100
10 | O=C(O)c1ccc(Nc2ccc(C(F)(F)F)cc2)c(-c2cocn2)c1 [Compound 57, 3-(oxazol-4-yl)-4-((4-(trifluoromethyl)phenyl)amino) benzoic acid] | ≤ 100
11 | CC(C)NC(=O)c1ccc(Nc2ccc(C(F)(F)F)cc2)c(-c2nnn(C)n2)c1 [Compound 11, N-isopropyl-3-(2-methyl-2H-tetrazol-5-yl)-4-((4-(trifluoromethyl)phenyl)amino) benzamide] | ≤ 100
12 | O=C(O)c1ccc(Nc2ccc(C(F)(F)F)cc2)c(-c2cc(Cl)ccn2)c1 [Compound 55, 3-(4-chloro-2-pyridyl)-4-[4-(trifluoromethyl)anilino] benzoic acid] | ≤ 100
13 | Cn1nnc(-c2cc(C(=O)NS(C)(=O)=O)ccc2Nc2cccc(C(F)(F)F)c2)n1 [Compound 23, 3-(2-methyl-2H-tetrazol-5-yl)-N-(methylsulfonyl)-4-((3-(trifluoromethyl)phenyl)amino) benzamide] | ≤ 100
14 | COC(=O)c1ccc(Nc2ccc(C(F)(F)F)cc2)c(-c2nnn(Cc3ccccc3F)n2)c1 [Compound 24, methyl 3-(2-(2-fluorobenzyl)-2H-tetrazol-5-yl)-4-((4-(trifluoromethyl)phenyl)amino) benzoate] | 100 to 1000
15 | O=C(O)c1ccc(Nc2ccc(C(F)(F)F)cc2)c(-c2nnc(C(F)(F)F)s2)c1 [Compound 58, 4-[4-(trifluoromethyl)anilino]-3-[5-(trifluoromethyl)-1,3,4-thiadiazol-2-yl]benzoic acid] | ≤ 100
16 | CC(C)NC(=O)c1ccc(Nc2cccc(C(F)(F)F)c2)c(-c2nnn(C)n2)c1 [Compound 21, N-isopropyl-3-(2-methyl-2H-tetrazol-5-yl)-4-((3-(trifluoromethyl)phenyl)amino) benzamide] | ≤ 100

Row | SMILES | IC50 [nM]
17 | O=C(O)c1ccc(Nc2ccc(C(F)(F)F)cc2)c(-c2ccncn2)c1 [Compound 60, 3-pyrimidin-4-yl-4-[4-(trifluoromethyl)anilino] benzoic acid] | 100 to 1000
18 | O=C(O)c1ccc(Nc2ccc(C(F)(F)F)cc2)c(-c2cscn2)c1 [Compound 41, 3-(thiazol-4-yl)-4-((4-(trifluoromethyl)phenyl)amino) benzoic acid] | ≤ 100
19 | CCN(CC)C(=O)c1ccc(Nc2cccc(C(F)(F)F)c2)c(-c2nnn(C)n2)c1 [Compound 20, N,N-diethyl-3-(2-methyl-2H-tetrazol-5-yl)-4-((3-(trifluoromethyl)phenyl)amino) benzamide] | 100 to 1000
20 | COC(=O)c1ccc(Nc2cccc(C(F)(F)F)c2)c(-c2nnn(Cc3ccccc3F)n2)c1 [Compound 26, methyl 3-(2-(2-fluorobenzyl)-2H-tetrazol-5-yl)-4-((3-(trifluoromethyl)phenyl)amino) benzoate] | 100 to 1000
21 | Cn1nnc(-c2cc(C(=O)NCCOCCOCCN)ccc2Nc2ccc(C(F)(F)F)cc2)n1 [Compound 44, N-(2-(2-(2-aminoethoxy)ethoxy)ethyl)-3-(2-methyl-2H-tetrazol-5-yl)-4-((4-(trifluoromethyl)phenyl)amino) benzamide] | 100 to 1000
22 | O=C(O)c1ccc(Nc2ccc(C(F)(F)F)cc2)c(-c2nnc(C3CC3)s2)c1 [Compound 59, 3-(5-cyclopropyl-1,3,4-thiadiazol-2-yl)-4-((4-(trifluoromethyl)phenyl)amino) benzoic acid] | ≤ 100
23 | O=C(O)c1ccc(Nc2ccc(C(F)(F)F)cc2)c(-c2ccc(F)cn2)c1 [Compound 51, 3-(5-fluoro-2-pyridyl)-4-[4-(trifluoromethyl)anilino] benzoic acid] | ≤ 100
24 | CCNC(=O)c1ccc(Nc2cccc(C(F)(F)F)c2)c(-c2nnn(C)n2)c1 [Compound 22, N-ethyl-3-(2-methyl-2H-tetrazol-5-yl)-4-((3-(trifluoromethyl)phenyl)amino) benzamide] | ≤ 100
25 | O=C(O)c1ccc(Nc2ccc(C(F)(F)F)cc2)c(-c2nnn(Cc3ccccc3F)n2)c1 [Compound 25, 3-(2-(2-fluorobenzyl)-2H-tetrazol-5-yl)-4-((4-(trifluoromethyl)phenyl)amino) benzoic acid] | ≤ 100
26 | Nc1cc(-c2cc(C(=O)O)ccc2Nc2ccc(C(F)(F)F)cc2)ccn1 [Compound 30, 3-(2-aminopyridin-4-yl)-4-((4-(trifluoromethyl)phenyl)amino) benzoic acid] | ≤ 100
27 | CNC(=O)c1ccc(Nc2ccc(C(F)(F)F)cc2)c(-c2nnn(C)n2)c1 [Compound 8, N-methyl-3-(2-methyl-2H-tetrazol-5-yl)-4-((4-(trifluoromethyl)phenyl)amino) benzamide] | ≤ 100
28 | Cn1nnc(-c2cc(C(=O)NCCOCCOCCOCCOCCNC(=O)OC(C)(C)C)ccc2Nc2ccc(C(F)(F)F)cc2)n1 [Compound 63, tert-butyl (1-(3-(2-methyl-2H-tetrazol-5-yl)-4-((4-(trifluoromethyl)phenyl)amino)phenyl)-1-oxo-5,8,11,14-tetraoxa-2-azahexadecan-16-yl)carbamate] | 100 to 1000
29 | O=C(O)c1ccc(Nc2ccc(C(F)(F)F)cc2)c(-c2cnccn2)c1 [Compound 43, 3-(pyrazin-2-yl)-4-((4-(trifluoromethyl)phenyl)amino) benzoic acid] | ≤ 100
30 | CN(C)C(=O)c1ccc(Nc2cccc(C(F)(F)F)c2)c(-c2nnn(C)n2)c1 [Compound 19, N,N-dimethyl-3-(2-methyl-2H-tetrazol-5-yl)-4-((3-(trifluoromethyl)phenyl)amino) benzamide] | 100 to 1000
31 | CN(C)C(=O)c1ccc(Nc2ccc(C(F)(F)F)cc2)c(-c2nnn(C)n2)c1 [Compound 13, N,N-dimethyl-3-(2-methyl-2H-tetrazol-5-yl)-4-((4-(trifluoromethyl)phenyl)amino) benzamide] | 100 to 1000
